According to US12564644B2, “Cyclodextrin complexes of specialized proresolving mediators” (THETIS PHARMACEUTICALS LLC, priority 2022, dated 2026):

Legend:
[1] = Chemical stability in solution (deionized water) by HPLC, 16 weeks accelerated conditions (Example 10); assay type: physicochemical; conditions: for RvE1 Area % Baseline: 2 mg/ml of RvE1, 40° C., 75% relative humidity, exposed to air; for % Change at Week 16 vs Baseline / RvE1 Area % Week 8 / RvE1 Area % Week 16: 2 mg/ml of RvE1, accelerated conditions
Method: The stability of […] alone (“RvE1 Control”) and complexed with cyclodextrins (“RvE1 CD Complexes”) was evaluated. Samples of the test articles were placed in open test tubes and maintained at 40° C. and 75% relative humidity, exposed to air, for 16 weeks. […] Briefly, HPLC analysis was performed on a Halo Guard column (Halo C18 4.6×150 mm, 2.7 μm), mounted on an Agilent HPLC system equipped with a UV detector (272 nm detection). The mobile phase consisted of a gradient between solution A, water, and solution B, methanol, both containing 100 mM of ammonium formate at pH 4.0. The gradient program was 95-0% with respect to solution A and 5-100% with respect to solution B. The flow rate was 0.9 mL/min over 50 minutes. Lack of stability was indicated by a reduction in the area percent purity (area %) of the single major peak of RvE1 (retention time of 31.3 minutes) and the appearance of new HPLC peaks or an increase in the area % of pre-existing impurities. All HPLC measurements of RvE1 purity and degradant levels were calculated based on area percent relative to the detectable components of the molecule including isomers and epimers of RvE1, impurities and degradants induced by the test conditions. The chemical stability of […] or Na-RvE1 alone and complexed with cyclodextrins in solution was evaluated. Samples of the test articles dissolved in deionized water at a concentration of 2 mg/ml of RvE1 were placed in open test tubes and maintained at 40° C. and 75% relative humidity, exposed to air, over a period of 16 weeks.

[2] = Long-term solid-state chemical stability by HPLC, 24 weeks accelerated conditions (Example 9); assay type: physicochemical; conditions: for RvE1 Area % (error +/− 1%) Baseline: 40° C., 75% relative humidity, exposed to air; for % Change at Week 24 vs Baseline (degradation rate) / RvE1 Area % (error +/− 1%) Week 8 / RvE1 Area % (error +/− 1%) Week 16 / RvE1 Area % (error +/− 1%) Week 24: accelerated conditions
Method: The stability of RvE1-MgLys alone (“RvE1 Control”) and complexed with cyclodextrins (“RvE1 CD Complexes”) was evaluated. Samples of the test articles were placed in open test tubes and maintained at 40° C. and 75% relative humidity, exposed to air, for 16 weeks. […] Briefly, HPLC analysis was performed on a Halo Guard column (Halo C18 4.6×150 mm, 2.7 μm), mounted on an Agilent HPLC system equipped with a UV detector (272 nm detection). The mobile phase consisted of a gradient between solution A, water, and solution B, methanol, both containing 100 mM of ammonium formate at pH 4.0. The gradient program was 95-0% with respect to solution A and 5-100% with respect to solution B. The flow rate was 0.9 mL/min over 50 minutes. Lack of stability was indicated by a reduction in the area percent purity (area %) of the single major peak of RvE1 (retention time of 31.3 minutes) and the appearance of new HPLC peaks or an increase in the area % of pre-existing impurities. All HPLC measurements of RvE1 purity and degradant levels were calculated based on area percent relative to the detectable components of the molecule including isomers and epimers of RvE1, impurities and degradants induced by the test conditions.
A study of the chemical stability of both RvE1-Mg-Lys alone and sodium RvE1 (“Na-RvE1”) alone and complexed with cyclodextrins was evaluated over 24 weeks. Samples of the test articles as solids were placed in open test tubes and maintained at 40° C. and 75% relative humidity, exposed to air.

[3] = Solid-state physical stability, visual, ambient conditions 168 hours (Example 11); assay type: physicochemical; conditions: open test tubes, 18-22° C., relative humidity 52% to 72%
Method: The solid-state physical stability of […] alone (“RvE1 Control”) […]-cyclodextrin complex (“RvE1 Complex”) was evaluated (FIG. 24A-D). Samples of the test articles as solids were placed in open test tubes under ambient conditions over a period of 168 hours, at temperature between 18-22° C. and relative humidity between 52% and 72%. The solid-state physical stability was assessed visually based on whether the substance retained its form as a solid powder or transitioned to a liquid form.

[4] = Solid-state chemical stability by HPLC, 16 weeks accelerated conditions (Example 8); assay type: physicochemical; conditions: 40° C., 75% relative humidity, exposed to air
[5] = Oral pharmacokinetics, RvE1 in blood plasma after single oral gavage (Example 12); assay type: in vivo; conditions: mice
Method: To establish the comparative oral pharmacokinetics (“PK”) of RvE1 MgLys alone (“RvE1 Control”) and RvE1 MgLys complexed with gamma-cyclodextrin (“RvE1 Complex”), a study was conducted to investigate RvE1 exposure in blood plasma following a single dose of RvE1 Control or RvE1 Complex administered via oral gavage at various timepoints up to 8 hours of 4 mg/kg of RvE1. Quantitative measurement of RvE1 in blood plasma was determined by HPLC-MS/MS performed on a Halo Guard column (Halo C18 4.6×150 mm, 2.7 μm), mounted on an Agilent HPLC system equipped with a UV detector (272 nm detection).
Sixty five (65) male C57B16 mice were randomized into 3 experimental groups at 8 weeks of age: baseline control (“Baseline”, n=5), RvE1 Control (n=30) and the RvE1 Complex (n=30). Prior to administration of test article, the mice in the Baseline group were sacrificed and blood was drawn to establish the endogenous levels of RvE1 in plasma. The 60 remaining mice received a single dose of RvE1 Control or RvE1 Complex. Five (5) mice in each group were sacrificed at each of the following timepoints to enable the determination of an RvE1 concentration-versus-time curve: 15 minutes, 30 minutes, 1, 2—, 4- and 8-hours post-dose. At the time of sacrifice blood was drawn into EDTA-treated tubes and immediately frozen.

[6] = Solid-state chemical stability by HPLC, 16 weeks accelerated conditions (Example 8); assay type: physicochemical
Method: The stability of […] alone (“RvE1 Control”) and complexed with cyclodextrins (“RvE1 CD Complexes”) was evaluated. Samples of the test articles were placed in open test tubes and maintained at 40° C. and 75% relative humidity, exposed to air, for 16 weeks. […] Briefly, HPLC analysis was performed on a Halo Guard column (Halo C18 4.6×150 mm, 2.7 μm), mounted on an Agilent HPLC system equipped with a UV detector (272 nm detection). The mobile phase consisted of a gradient between solution A, water, and solution B, methanol, both containing 100 mM of ammonium formate at pH 4.0. The gradient program was 95-0% with respect to solution A and 5-100% with respect to solution B. The flow rate was 0.9 mL/min over 50 minutes. Lack of stability was indicated by a reduction in the area percent purity (area %) of the single major peak of RvE1 (retention time of 31.3 minutes) and the appearance of new HPLC peaks or an increase in the area % of pre-existing impurities. All HPLC measurements of RvE1 purity and degradant levels were calculated based on area percent relative to the detectable components of the molecule including isomers and epimers of RvE1, impurities and degradants induced by the test conditions.

[7] = accelerated conditions, baseline
[8] = accelerated conditions, week 16

CC[C@@H](O)/C=C/C=C/C[C@@H](O)/C=C/C=C/C=C/[C@@H](O)CCCC(=O)[O-].[Na+] [Na-RvE1, sodium RvE1]
RvE1 Area % Baseline [1]: 96.2% | % Change at Week 16 vs Baseline [1]: 80.7% | RvE1 Area % Week 8 [1]: 36.0% | RvE1 Area % Week 16 ([1]; week 16): 18.6% | RvE1 Area % Week 16 ([1]; week 16, listed as Na-RvE1 Control): 18.6% | RvE1 Area % (error +/− 1%) Baseline [2]: 96.2% | RvE1 Area % (error +/− 1%) Baseline ([2]; listed as Na-RvE1 control): 96.2% | % Change at Week 24 vs Baseline (degradation rate) [2]: 100.0% | % Change at Week 24 vs Baseline (degradation rate) ([2]; listed as Na-RvE1 control): 100% | RvE1 Area % (error +/− 1%) Week 8 [2]: 78.0% | RvE1 Area % (error +/− 1%) Week 16 [2]: 49.8% | RvE1 Area % (error +/− 1%) Week 24 ([2]; week 24): 0.0% | RvE1 Area % (error +/− 1%) Week 24 ([2]; week 24, listed as Na-RvE1 Control): 0%

CC[C@@H](O)/C=C/C=C\C[C@@H](O)/C=C/C=C/C=C\[C@@H](O)CCCC(=O)O.CC[C@@H](O)/C=C/C=C\C[C@@H](O)/C=C/C=C/C=C\[C@@H](O)CCCC(=O)O.NCCCC[C@H](N)C(=O)[O-].NCCCC[C@H](N)C(=O)[O-].[Mg+2] [RvE1 Control, RvE1 magnesium dilysinate]
physical form, visual ([3]; 24 and 168 hours): gel-like substance | physical form, visual ([3]; 8 hours): began to agglomerate and turn a darker color | physical form, visual ([3]; 8 hours, listed as RvE1-Control): remained in powder form | physical form, visual ([3]; baseline): powder form | RvE1 Area % Week 16 ([4]; week 16, listed as RvE1-MgLys): 80.7% | RvE1 Area % Baseline ([4]; open test tubes, baseline, listed as RvE1-MgLys): 94.0% | RvE1 Area % Baseline [1]: 94.8% | % Change at Week 16 vs Baseline [1]: 45.7% | RvE1 Area % Week 8 [1]: 84.3% | RvE1 Area % Week 16 ([1]; week 16, listed as RvE1-MgLys Control): 51.5% | RvE1 Area % Week 16 ([1]; week 16, listed as RvE1 Mg-Lys): 51.5% | AUC (0 to 8 hrs) ([5]; 4 mg/kg of RvE1): 15.2 ng·h/mL | Cmax ([5]; 4 mg/kg of RvE1): 45.5 ng/mL | Tmax ([5]; 4 mg/kg of RvE1): 15 min | RvE1 plasma concentration 15 min ([5]; 4 mg/kg of RvE1, 15 min): 45.5 ng/mL | RvE1 plasma concentration 30 min ([5]; 4 mg/kg of RvE1, 30 min): 6.3 ng/mL | RvE1 plasma concentration 1 hr ([5]; 4 mg/kg of RvE1, 1 hr): 1.2 ng/mL | RvE1 plasma concentration 2 hr ([5]; 4 mg/kg of RvE1, 2 hr): 0.2 ng/mL | RvE1 plasma concentration 4 hr ([5]; 4 mg/kg of RvE1, 4 hr): 0.3 ng/mL | RvE1 plasma concentration 8 hr ([5]; 4 mg/kg of RvE1, 8 hr): 0.1 ng/mL | % Change at Week 16 vs Baseline (degradation rate) ([6]; 40° C., 75% relative humidity, exposed to air): 14.1% | RvE1 Area % Week 8 ([6]; 40° C., 75% relative humidity, exposed to air, week 8): 86.7% | RvE1 Area % Week 16 ([6]; 40° C., 75% relative humidity, exposed to air, week 16): 80.7% | # of Deg. Peaks ≥0.20% Baseline [6, 7]: 6 | # of Deg. Peaks ≥1.00% Baseline [6, 7]: 2 | # of Deg. Peaks ≥0.20% Week 8 ([6]; accelerated conditions, week 8): 19 | # of Deg. Peaks ≥1.00% Week 8 ([6]; accelerated conditions, week 8): 4 | # of Deg. Peaks ≥0.20% Week 16 [6, 8]: 19 | # of Deg. Peaks ≥1.00% Week 16 [6, 8]: 8 | RvE1 Area % Baseline ([6]; open test tubes, 40° C., 75% relative humidity, exposed to air, baseline): 94% | RvE1 Area % (error +/− 1%) Baseline ([2]; listed as RvE1 Mg-Lys): 94.8% | RvE1 Area % (error +/− 1%) Baseline ([2]; listed as RvE1 MgLys control): 94.8% | % Change at Week 24 vs Baseline (degradation rate) ([2]; listed as RvE1-MgLys control): 16.6% | % Change at Week 24 vs Baseline (degradation rate) ([2]; listed as RvE1 Mg-Lys): 16.6% | RvE1 Area % (error +/− 1%) Week 8 [2]: 88.4% | RvE1 Area % (error +/− 1%) Week 16 [2]: 82.3% | RvE1 Area % (error +/− 1%) Week 24 ([2]; week 24, listed as RvE1-MgLys Control): 79.1% | RvE1 Area % (error +/− 1%) Week 24 ([2]; week 24, listed as RvE1 Mg-Lys): 79.1%
